Measurements reported in patent US8445510B2, “Fused bicyclic kinase inhibitors” (OSI Pharmaceuticals, LLC, priority 2011, dated 2013).

Experiments:
[1] = biological target: T1, RON (Homo sapiens, UniProt Q04912); test: sfRON cell mechanistic assay (HeLa), phosphorylated RON ELISA; type: cell-based; conditions: HeLa cells transfected with sfRON; inhibition of phosphorylated RON; four hours incubation; at least duplicate experiments; read-out: sfRON mech IC50
T1 sequence (Q04912 913-1400): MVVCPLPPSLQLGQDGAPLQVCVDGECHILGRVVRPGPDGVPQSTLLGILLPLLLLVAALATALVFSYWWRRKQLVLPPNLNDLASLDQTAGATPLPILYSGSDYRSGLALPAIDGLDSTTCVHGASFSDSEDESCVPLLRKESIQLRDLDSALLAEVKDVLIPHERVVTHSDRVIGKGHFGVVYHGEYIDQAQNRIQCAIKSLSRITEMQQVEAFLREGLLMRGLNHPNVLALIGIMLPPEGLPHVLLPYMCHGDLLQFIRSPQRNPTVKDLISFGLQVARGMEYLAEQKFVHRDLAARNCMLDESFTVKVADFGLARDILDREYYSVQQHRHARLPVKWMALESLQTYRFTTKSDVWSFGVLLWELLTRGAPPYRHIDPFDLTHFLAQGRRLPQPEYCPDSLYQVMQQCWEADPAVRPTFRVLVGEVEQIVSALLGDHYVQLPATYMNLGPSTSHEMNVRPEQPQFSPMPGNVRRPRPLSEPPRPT
Summary of the method: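 HeLa cells transiently transfected with sfRON plasmid, then exposed 4 h at 37 °C to a 6-point compound series (typically 10 μM to 3 nM, 0.5% DMSO). Phospho-RON (pY1238/1239) in lysates measured by sandwich ELISA with luminescence. IC50 from 4-parameter fit of percent-of-DMSO-control data, at least duplicate runs.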

[2] = biological target: T2, Aurora B (Homo sapiens, UniProt Q96GD4); test: Aurora B cell mechanistic assay (HT-29), phospho-Histone H3 (Ser10) ELISA; type: cell-based; conditions: HT-29 cell line; inhibition of phospho-Histone H3 (Ser10); at least duplicate experiments (italicized if single experiment); read-out: Aurora B mech IC50
T2 construct: HT-29 cells grown in complete growth media
T2 sequence (Q96GD4 whole entry): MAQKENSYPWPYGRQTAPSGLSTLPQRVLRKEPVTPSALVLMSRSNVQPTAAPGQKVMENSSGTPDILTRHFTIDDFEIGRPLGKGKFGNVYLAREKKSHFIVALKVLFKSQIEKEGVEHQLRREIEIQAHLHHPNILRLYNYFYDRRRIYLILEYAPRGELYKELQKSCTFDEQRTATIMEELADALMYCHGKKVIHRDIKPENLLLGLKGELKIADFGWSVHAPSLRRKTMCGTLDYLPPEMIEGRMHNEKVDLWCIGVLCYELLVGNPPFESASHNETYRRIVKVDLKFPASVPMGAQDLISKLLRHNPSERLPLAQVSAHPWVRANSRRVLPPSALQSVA
Procedure: The cellular activity of the compounds of the present invention against Aurora B may be determined by the following procedure. HT-29 cells grown in complete growth media (McCoy's 5A, 10% FCS, 1% L-glutamine) were plated into wells of a 96 well tissue culture plate (Falcon 3072) at a cell density of 4×10^4 cells/0.09 ml media/well. Cells were subsequently incubated overnight in a 5% CO2 humidified 37° C. incubator. The following day 10 μl of a 10× stock of test compound serially diluted in media was added to the cells and incubated for 1 h at 37° C. at which time Calyculin A (Cell Signaling #9902) was added at a concentration of 100 nM and cells incubated for an additional 30 minutes in a 5% CO2 humidified 37° C. incubator. Media was then aspirated and cells lysed using a Triton based lysis buffer. Lysates were transferred to a pre-coated anti-Histone H3 antibody coated plate supplied by Cell Signaling in their PathScan phospho-Histone H3 (Ser10) ELISA kit (#7155). After an overnight incubation with lysate the ELISA was continued following the manufacturer's instructions. Signal was measured on a Wallac Victor plate reader at 450 nm. DMSO control treated cells served as 100% signal and an Aurora B kinase inhibitor served as 100% inhibition. The percent inhibition of phospho-Histone H3 (Ser10) was expressed as % control. IC50 values were calculated from the percent control data using a standard four-parameter model.
The IC50 values of exemplary compounds of the present invention determined in a Aurora B cell mechanistic assay using the HT-29 cell line according to the procedures described herein in at least duplicate experiments are abbreviated as follows and are shown in Table 4: A, IC50≦0.05 μM; B, 0.05 μM<IC50≦0.2 μM; C, 0.2 μM<IC50≦1 μM; D, IC50>1 μM; ND, not determined. If only data from single experiments are available, the abbreviations are italicized. The Example # of Table 4 corresponds to the compound example number as illustrated in the Examples section.

Row | IC50 [1] [µM] | IC50 [2] [µM] | SMILES
1 | 0.2 to 1 | > 1 | COc1ccc(F)c(Cl)c1[C@@H](C)c1c[nH]c2ncc(-c3cnn([C@H]4CC[C@H](C(=O)N(C)C)CC4)c3C)cc12 [Example 14, Trans-4-(4-{3-[(1S)-1-(2-chloro-3-fluoro-6-methoxyphenyl)ethyl]-1H-pyrrolo[2,3-b]pyridin-5-yl}-5-methyl-1H-pyrazol-1-yl)-N,N-dimethylcyclohexanecarboxamide]
2 | 0.2 to 1 | > 1 | Cc1c(-c2cnc3[nH]cc([C@H](C)c4c(OC(F)F)ccc(F)c4Cl)c3c2)cnn1[C@H]1C[C@@H](O)C1 [Example 81, cis-3-[4-(3-{(1S)-1-[2-Chloro-6-(difluoromethoxy)-3-fluorophenyl]ethyl}-1H-pyrrolo[2,3-b]pyridin-5-yl)-5-methyl-1H-pyrazol-1-yl]cyclobutanol]
3 | 0.2 to 1 | > 1 | COc1ccc(F)c(Cl)c1[C@@H](C)c1c[nH]c2ncc(-c3cnn(C)c3C)cc12 [Example 3, 3-[(1S)-1-(2-Chloro-3-fluoro-6-methoxyphenyl)ethyl]-5-(1,5-dimethyl-1H-pyrazol-4-yl)-1H-pyrrolo[2,3-b]pyridine]
4 | 0.2 to 1 | > 1 | CCc1nn(CC(C)(C)O)cc1-c1cnc2[nH]cc([C@H](C)c3c(OC)ccc(F)c3Cl)c2c1 [Example 12, 1-(4-{3-[(1S)-1-(2-Chloro-3-fluoro-6-methoxyphenyl)ethyl]-1H-pyrrolo[2,3-b]pyridin-5-yl}-3-ethyl-1H-pyrazol-1-yl)-2-methylpropan-2-ol]
5 | > 1 | > 1 | COc1ccc(F)c(Cl)c1[C@@H](C)c1c[nH]c2ncc(-c3cn(C)nc3C#N)cc12 [Example 46, 4-{3-[(1S)-1-(2-Chloro-3-fluoro-6-methoxyphenyl)ethyl]-1H-pyrrolo[2,3-b]pyridin-5-yl}-1-methyl-1H-pyrazole-3-carbonitrile]
6 | 0.2 to 1 | > 1 | Cc1c(-c2cnc3[nH]cc([C@H](C)c4c(OC(F)F)ccc(F)c4Cl)c3c2)cnn1[C@H]1C[C@@](C)(O)C1 [Example 79, cis-3-[4-(3-{(1S)-1-[2-Chloro-6-(difluoromethoxy)-3-fluorophenyl]ethyl}-1H-pyrrolo[2,3-b]pyridin-5-yl)-5-methyl-1H-pyrazol-1-yl]-1-methylcyclobutanol]
7 | ≤ 0.2 | 0.2 to 1 | Cc1c(-c2cnc3[nH]cc([C@H](C)c4c(OC(F)F)ccc(F)c4Cl)c3c2)cnn1C[C@H](O)CO [Example 70, (2S)-3-[4-(3-{(1S)-1-[2-Chloro-6-(difluoromethoxy)-3-fluorophenyl]ethyl}-1H-pyrrolo[2,3-b]pyridin-5-yl)-5-methyl-1H-pyrazol-1-yl]propane-1,2-diol]
8 | 0.2 to 1 | > 1 | Cc1c(-c2cnc3[nH]cc([C@H](C)c4c(O)ccc(F)c4Cl)c3c2)cnn1[C@H]1CC[C@H](O)CC1 [Example 102, 3-Chloro-4-fluoro-2-[(1S)-1-{5-[1-(trans-4-hydroxycyclohexyl)-5-methyl-1H-pyrazol-4-yl]-1H-pyrrolo[2,3-b]pyridin-3-yl}ethyl]phenol]
9 | > 1 | 0.2 to 1 | COc1ccc(F)c(Cl)c1[C@@H](C)c1c[nH]c2ncc(-c3cn(C)nc3Cl)cc12 [Example 60, 3-[(1S)-1-(2-chloro-3-fluoro-6-methoxyphenyl)ethyl]-5-(3-chloro-1-methyl-1H-pyrazol-4-yl)-1H-pyrrolo[2,3-b]pyridine]
10 | 0.2 to 1 | 0.2 to 1 | Cc1c(-c2cnc3[nH]cc([C@H](C)c4c(OC(C)C)ccc(F)c4Cl)c3c2)cnn1[C@H]1CC[C@H](O)CC1 [Example 104, trans-4-[4-(3-{(1S)-1-[2-Chloro-3-fluoro-6-(propan-2-yloxy)phenyl]ethyl}-1H-pyrrolo[2,3-b]pyridin-5-yl)-5-methyl-1H-pyrazol-1-yl]cyclohexanol]
11 | > 1 | 0.2 to 1 | COc1ccc(F)c(Cl)c1[C@@H](C)c1c[nH]c2ncc(-c3cn(C)nc3CN)cc12 [Example 50, 1-(4-{3-[(1S)-1-(2-Chloro-3-fluoro-6-methoxyphenyl)ethyl]-1H-pyrrolo[2,3-b]pyridin-5-yl}-1-methyl-1H-pyrazol-3-yl)methanamine]
12 | 0.2 to 1 | > 1 | C[C@H](c1c(OC(F)F)ccc(F)c1Cl)c1c[nH]c2ncc(-c3cnn([C@H]4CC[C@H](O)CC4)c3CO)cc12 [Example 83, trans-4-[4-(3-{(1S)-1-[2-Chloro-6-(difluoromethoxy)-3-fluorophenyl]ethyl}-1H-pyrrolo[2,3-b]pyridin-5-yl)-5-(hydroxymethyl)-1H-pyrazol-1-yl]cyclohexanol]
13 | > 1 | > 1 | COc1ccc(F)c(Cl)c1[C@@H](C)c1c[nH]c2ncc(-c3c(C)nn(CC(C)(C)O)c3C)cc12 [Example 5, 1-(4-{3-[(1S)-1-(2-Chloro-3-fluoro-6-methoxyphenyl)ethyl]-1H-pyrrolo[2,3-b]pyridin-5-yl}-3,5-dimethyl-1H-pyrazol-1-yl)-2-methylpropan-2-ol]
14 | 0.2 to 1 | > 1 | [2H][C@@](C)(c1c(OC)ccc(F)c1Cl)c1c[nH]c2ncc(-c3cnn([C@H]4CC[C@H](O)CC4)c3C)cc12 [Example 110, trans-4-(4-{3-[(1S)-1-(2-Chloro-3-fluoro-6-methoxyphenyl)(1-^2H)ethyl]-1H-pyrrolo[2,3-b]pyridin-5-yl}-5-methyl-1H-pyrazol-1-yl)cyclohexanol]
15 | 0.2 to 1 | > 1 | [2H]C([2H])([2H])Oc1ccc(F)c(Cl)c1[C@@H](C)c1c[nH]c2ncc(-c3cnn([C@H]4CC[C@H](O)CC4)c3C)cc12 [Example 107, trans-4-(4-{3-[(1S)-1-{2-Chloro-3-fluoro-6-[(^2H3)methyloxy]phenyl}ethyl]-1H-pyrrolo[2,3-b]pyridin-5-yl}-5-methyl-1H-pyrazol-1-yl)cyclohexanol]
16 | > 1 | > 1 | COc1ccc(F)c(Cl)c1[C@@H](C)c1c[nH]c2ncc(-c3cnn([C@H]4CC[C@H](O)CC4)c3Cl)cc12 [Example 49, trans-4-(5-Chloro-4-{3-[(1S)-1-(2-chloro-3-fluoro-6-methoxyphenyl)ethyl]-1H-pyrrolo[2,3-b]pyridin-5-yl}-1H-pyrazol-1-yl)cyclohexanol]
17 | 0.2 to 1 | 0.2 to 1 | COc1ccc(F)c(Cl)c1[C@@H](C)c1c[nH]c2ncc(-c3c[nH]nc3C)cc12 [Example 1, 3-[(1S)-1-(2-Chloro-3-fluoro-6-methoxyphenyl)ethyl]-5-(3-methyl-1H-pyrazol-4-yl)-1H-pyrrolo[2,3-b]pyridine]
18 | > 1 | > 1 | COc1ccc(F)c(Cl)c1[C@@H](C)c1c[nH]c2ncc(-c3cnc(C)n3C)cc12 [Example 65, 3-[(1S)-1-(2-chloro-3-fluoro-6-methoxyphenyl)ethyl]-5-(1,2-dimethyl-1H-imidazol-5-yl)-1H-pyrrolo[2,3-b]pyridine]
19 | 0.2 to 1 | > 1 | CCc1nn([C@H]2CC[C@H](O)CC2)cc1-c1cnc2[nH]cc([C@H](C)c3c(OC)ccc(F)c3Cl)c2c1 [Example 47, trans-4-(4-{3-[(1S)-1-(2-Chloro-3-fluoro-6-methoxyphenyl)ethyl]-1H-pyrrolo[2,3-b]pyridin-5-yl}-3-ethyl-1H-pyrazol-1-yl)cyclohexanol]
20 | 0.2 to 1 | 0.2 to 1 | C[C@H](c1c(OC(F)F)ccc(F)c1Cl)c1c[nH]c2ncc(-c3cnn([C@H]4CC[C@H](O)CC4)c3F)cc12 [Example 84, trans-4-[4-(3-{(1S)-1-[2-Chloro-6-(difluoromethoxy)-3-fluorophenyl]ethyl}-1H-pyrrolo[2,3-b]pyridin-5-yl)-5-fluoro-1H-pyrazol-1-yl]cyclohexanol]
